From patent US9670204B2, “Compounds and pharmaceutical compositions thereof for the treatment of inflammatory disorders” (Galapagos NV, priority 2013, dated 2017)

How the values were obtained:
[1] = system: LPA 18:2 in rat plasma; assay: Rat whole blood (plasma) LPA assay; type: biochemical; settings: 2 h at 37 C, LPA 18:2 by LC-MS/MS
Procedure, shortened: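 Heparinised rat plasma spiked with compound (1% DMSO final), incubated 2 h at 37 °C, 5% CO2 with shaking; controls kept at −20 °C. After methanol precipitation with LPA 17:0 internal standard, LPA 18:2 measured by LC-MS/MS (C18, isocratic), relative quantities from peak area without calibration.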

[2] = system: LPA 18:2 in human plasma; assay: Human whole blood (plasma) LPA assay; type: biochemical; settings: 2 h at 37 C, LPA 18:2 by LC-MS/MS
Description: Blood is collected from healthy volunteers who gave informed consent into sodium heparin tubes by venipuncture, then gently inverted several times to prevent clotting. Tubes are centrifuged at 3000 rpm for 15 min at 4° C. then plasma is stored at −80° C. Compounds are diluted in DMSO in concentration dependent manner then 0.5 μL are dispensed into 96-well plate placed in ice. Plasma is defrosted on ice then 49.5 μL of plasma are added into the well containing 0.5 μL of compound (1% DMSO final). Plates are covered with a lid in polypropylene and incubated at +37° C., 5% CO2, for 2 h under gentle shaking (except controls which are stored at −20° C.).
At the end of the incubation, controls are defrosted in ice and transferred in the incubated plates for LC-MS/MS analysis with a non GLP-validated method. For the analysis, plasma proteins from a 10 μL incubated plates are precipitated with an excess of methanol containing the internal standard, LPA 17:0. After centrifugation, the corresponding supernatant is injected on a C18 column. Analytes are eluted out of the column under isocratic conditions. An API5500 QTRAP mass spectrometer (ABSciex™) is used for the detection of LPA 18:2. No calibration curve is prepared for LPA 18:2, however relative quantities are evaluated based on the peak area.

[3] = target: T1, hENPP2 (UniProtKB/SwissProt Q13822) (Homo sapiens (Human), UniProt Q13822); assay: fluorescent hENPP2 biochemical assay, FS-3 as substrate; settings: read-out: FS3-IC50
Procedure, shortened: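 hENPP2 in 50 mM Tris-HCl pH 8.0, 250 mM NaCl, 5 mM KCl, 1 mM MgCl2, 1 mM CaCl2, 0.1% fatty-acid-free BSA, preincubated with compound 30 min at room temperature. The 0.75 μM FS-3 solution was added and the mixture incubated 30 min at 30° C. Fluorescence (ex 485/em 520 nm) gives IC50.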

[4] = target: T1, hENPP2; assay: hENPP2 biochemical assay, LPC as substrate; settings: LPC (palmitoyl 16:0) as substrate
Procedure, shortened: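 Human ENPP2 in 50 mM Tris-HCl pH 8.5, 500 mM NaCl, 5 mM KCl, 10 mM CaCl2, 0.1% fatty-acid-free BSA, reacted 30 min at 37 °C with LPC 16:0 (150 µM solution added 1:1). Released choline measured via choline oxidase/peroxidase/TOOS/4-aminoantipyrine quinoneimine dye at 555 nm; IC50 reported.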

[5] = system: TS-induced pulmonary inflammation, cells in BALF; assay: Tobacco smoke (TS) model, lungs inflammatory cells recruitment; type: in vivo, female C57BL/6J mice; settings: days 6 to 11, TS-exposed mice
Description: The aim of this experiment is to evaluate the efficacy and potency of a test compound administered p.o., once or twice daily on days 6 to 11, vs reference compounds, on pulmonary inflammation induced by 11 days of TS-exposure in female C57BL/6J mice, by assessing the effect of a test compound on the tobacco smoke induced recruitment of inflammatory cells to the lungs.
The test compounds are formulated in PEG200/0.5% methylcellulose (25/75, v/v) and are given at a dose volume of 10 mL/kg. Roflumilast and Dexamethasone are included as positive […] control, respectively. Each treatment group consists of 10 mice.
A first group of mice is subjected to daily TS-exposure for 5 consecutive days and sacrificed on the day 6, 24 h after the final TS-exposure.
A second group is exposed to air for 5 consecutive days (sham exposure) and sacrificed on the day 6, 24 h after the final air-exposure.
Compound and reference-treated groups are subjected to daily TS-exposure for 11 consecutive days and sacrificed on the day 12, 24 h after the final TS-exposure. Mice are dosed p.o. on days 6 to 11, twice daily, 1 h prior to and 6 h after each TS-exposure, with either vehicle, or the test compound at 3, 5, 10 or 30 mg/kg. Another group is dosed p.o. on days 6 to 11, once daily, 1 h prior to each TS-exposure, with either vehicle, or the test compound at 10 mg/kg.
An additional group is dosed p.o., once daily, on days 6 to 11, with roflumilast at 5 mg/kg, 1 h prior to each TS-exposure. Dexamethasone is dosed p.o., twice daily, on days 6 to 11, at 0.3 mg/kg, 1 h prior to and 6 h after each TS-exposure.
For each mouse, a BAL is performed using 0.4 mL of PBS. The lavage fluid is centrifuged, the supernatant removed and the resulting cell pellet re-suspended for total cell counts and cytospin slide preparation. […]
The lungs are dissected out and the left lobes are removed, snap-frozen and stored at −80° C. […] Cell data are presented as individual data points for each animal and the mean value calculated for each group. […]
Percentage inhibitions for the cell data are calculated using the formula below: […]

Row | IC50 [1] | IC50 [2] | IC50 [3] | IC50 [4] | SMILES | number of cells recovered in the BALF, in particular macrophage cells, epithelial cells, and neutrophils ([5]; 10 mg/kg twice daily p.o.) | number of cells recovered in the BALF, in particular macrophage cells, epithelial cells, and neutrophils ([5]; 3 mg/kg twice daily p.o.)
1 | 0.01 to 100 nM | 100 to 500 nM | 0.01 to 100 nM | 0.01 to 100 nM | CCc1nc2c(F)cc(N3CCN(CC(=O)N4CC(O)C4)CC3)cn2c1N(C)c1nc(-c2ccc(F)cc2)c(C#N)s1 [Compound 12, 2-((2-ethyl-8-fluoro-6-(4-(2-(3-hydroxyazetidin-1-yl)-2-oxoethyl)piperazin-1-yl)imidazo[1,2-a]pyridin-3-yl)(methyl)amino)-4-(4-fluorophenyl)thiazole-5-carbonitrile] | significantly inhibited | –
2 | 500 to 1000 nM | 100 to 500 nM | – | – | CCc1nc2c(C)cc(N3CCN(CC(=O)N4CC(O)C4)CC3)cn2c1N(C)c1nc(-c2ccc(F)cc2)c(C#N)s1 [Compound 2, 2-((2-ethyl-6-(4-(2-(3-hydroxyazetidin-1-yl)-2-oxoethyl)piperazin-1-yl)-8-methylimidazo[1,2-a]pyridin-3-yl)(methyl)amino)-4-(4-fluorophenyl) thiazole-5-carbonitrile] | significantly inhibited | significantly inhibited
